Measurements: ChEMBL document CHEMBL2177104, “Identification of antitubercular benzothiazinone compounds by ligand-based design” (J Med Chem, 2012)
Converted amounts (≈) assume the structure as drawn.

System: not listed separately
Experiment: Cytotoxicity against human HEK293 cells after 24 hrs by MTT assay
Format: cell-based
Conditions: not given
With `O=c1nc(NCc2ccc3c(c2)OCCO3)sc2c([N+](=O)[O-])cc(C(F)(F)F)cc12` the CC50 at 24 h was > 10 µM.
For `COC(=O)C1CN(c2nc(=O)c3cc(C(F)(F)F)cc([N+](=O)[O-])c3s2)CCC12OC[C@H](C)O2` (stereo not given in full), the CC50 at 24 h was > 10 µM.
In the case of `O=c1nc(N2CCN(c3nccs3)CC2)sc2c([N+](=O)[O-])cc(C(F)(F)F)cc12`, the CC50 at 24 h is reported as > 10 µM.
For `O=c1nc(N2CCC(c3ccccc3)CC2)sc2c([N+](=O)[O-])cc(C(F)(F)F)cc12`, the CC50 at 24 h was > 10 µM.

System: not listed separately
Experiment: Cytotoxicity against human HeLa cells after 72 hrs by methylene blue staining
Format: cell-based
Conditions: not given
With `O=c1nc(NCc2ccc3c(c2)OCCO3)sc2c([N+](=O)[O-])cc(C(F)(F)F)cc12` the CC50 at 72 h was 41 µM.
`COC(=O)C1CN(c2nc(=O)c3cc(C(F)(F)F)cc([N+](=O)[O-])c3s2)CCC12OC[C@H](C)O2` (stereo not given in full) gave a CC50 at 72 h of 36 µM.
With `O=c1nc(N2CCC(c3ccccc3)CC2)sc2c([N+](=O)[O-])cc(C(F)(F)F)cc12` the CC50 at 72 h was > 50 µM.

System: not listed separately
Experiment: Kinetic solubility of the compound at pH 7.4
Format: physicochemical
Conditions: buffer, read-out: Kinetic_solubility
Compound `O=c1nc(N2CCC(c3ccccc3)CC2)sc2c([N+](=O)[O-])cc(C(F)(F)F)cc12` has a solubility kinetic of 0.06 µM (≈ 0.0261 µg/mL).

System: not listed separately
Experiment: Chemical stability in buffer
Format: physicochemical
Conditions: not given
Compound `O=c1nc(NCc2ccc3c(c2)OCCO3)sc2c([N+](=O)[O-])cc(C(F)(F)F)cc12` has a Stability of 91%.
Compound `COC(=O)C1CN(c2nc(=O)c3cc(C(F)(F)F)cc([N+](=O)[O-])c3s2)CCC12OC[C@H](C)O2` (stereo not given in full) has a Stability of 98%.
Compound `O=c1nc(N2CCN(c3nccs3)CC2)sc2c([N+](=O)[O-])cc(C(F)(F)F)cc12` has a Stability of 98%.
`O=c1nc(N2CCC(c3ccccc3)CC2)sc2c([N+](=O)[O-])cc(C(F)(F)F)cc12` showed a Stability of 82%.

System: Plasma
Experiment: Metabolic stability in mouse plasma
Format: ADME, cell-free
Conditions: not given
Compound `O=c1nc(NCc2ccc3c(c2)OCCO3)sc2c([N+](=O)[O-])cc(C(F)(F)F)cc12` has a Stability of 114%.
`COC(=O)C1CN(c2nc(=O)c3cc(C(F)(F)F)cc([N+](=O)[O-])c3s2)CCC12OC[C@H](C)O2` (stereo not given in full) showed a Stability of 56%.
Work on `O=c1nc(N2CCN(c3nccs3)CC2)sc2c([N+](=O)[O-])cc(C(F)(F)F)cc12` yielded a Stability of 111%.
For `O=c1nc(N2CCC(c3ccccc3)CC2)sc2c([N+](=O)[O-])cc(C(F)(F)F)cc12`, the Stability was 71%.

System: not listed separately
Experiment: Therapeutic index, ratio of GI50 for human HUVEC cells to MIC for Mycobacterium smegmatis 700084
Format: cell-based
Conditions: read-out: TI
In the case of `O=c1nc(N2CCC(c3ccccc3)CC2)sc2c([N+](=O)[O-])cc(C(F)(F)F)cc12`, the selectivity ratio is reported as > 12500.

System: not listed separately
Experiment: Cytotoxicity against human HepG2 cells after 24 hrs by MTT assay
Format: cell-based
Conditions: not given
In the case of `O=c1nc(NCc2ccc3c(c2)OCCO3)sc2c([N+](=O)[O-])cc(C(F)(F)F)cc12`, the CC50 at 24 h is reported as > 10 µM.
With `COC(=O)C1CN(c2nc(=O)c3cc(C(F)(F)F)cc([N+](=O)[O-])c3s2)CCC12OC[C@H](C)O2` (stereo not given in full) the CC50 at 24 h was > 10 µM.
With `O=c1nc(N2CCN(c3nccs3)CC2)sc2c([N+](=O)[O-])cc(C(F)(F)F)cc12` the CC50 at 24 h was > 10 µM.
With `O=c1nc(N2CCC(c3ccccc3)CC2)sc2c([N+](=O)[O-])cc(C(F)(F)F)cc12` the CC50 at 24 h was > 10 µM.

System: Plasma
Experiment: Metabolic stability in human plasma
Format: ADME, cell-free
Conditions: not given
`O=c1nc(NCc2ccc3c(c2)OCCO3)sc2c([N+](=O)[O-])cc(C(F)(F)F)cc12` showed a Stability of 86%.
`COC(=O)C1CN(c2nc(=O)c3cc(C(F)(F)F)cc([N+](=O)[O-])c3s2)CCC12OC[C@H](C)O2` (stereo not given in full) gave a Stability of 51%.
Compound `O=c1nc(N2CCN(c3nccs3)CC2)sc2c([N+](=O)[O-])cc(C(F)(F)F)cc12` has a Stability of 99%.
Compound `O=c1nc(N2CCC(c3ccccc3)CC2)sc2c([N+](=O)[O-])cc(C(F)(F)F)cc12` has a Stability of 96%.

System: not listed separately
Experiment: Antiproliferative activity against human HUVEC cells after 72 hrs by methylene blue staining
Format: cell-based
Conditions: not given
With `O=c1nc(NCc2ccc3c(c2)OCCO3)sc2c([N+](=O)[O-])cc(C(F)(F)F)cc12` the GI50 at 72 h was 20 µM.
`COC(=O)C1CN(c2nc(=O)c3cc(C(F)(F)F)cc([N+](=O)[O-])c3s2)CCC12OC[C@H](C)O2` (stereo not given in full) gave a GI50 at 72 h of 16 µM.
For `O=c1nc(N2CCC(c3ccccc3)CC2)sc2c([N+](=O)[O-])cc(C(F)(F)F)cc12`, the GI50 at 72 h was > 50 µM.

System: not listed separately
Experiment: Antiproliferative activity against human K562 cells after 72 hrs by electronic cell analysis
Format: cell-based
Conditions: not given
For `O=c1nc(NCc2ccc3c(c2)OCCO3)sc2c([N+](=O)[O-])cc(C(F)(F)F)cc12`, the GI50 at 72 h was 37 µM.
`COC(=O)C1CN(c2nc(=O)c3cc(C(F)(F)F)cc([N+](=O)[O-])c3s2)CCC12OC[C@H](C)O2` (stereo not given in full) showed a GI50 at 72 h of 22 µM.
For `O=c1nc(N2CCC(c3ccccc3)CC2)sc2c([N+](=O)[O-])cc(C(F)(F)F)cc12`, the GI50 at 72 h was > 50 µM.

System: Mycolicibacterium smegmatis
Experiment: Ratio of MIC for Mycobacterium smegmatis 700084 in […] to MIC for Mycobacterium smegmatis 700084 in MHB medium
Format: functional
Conditions: not given
For `O=c1nc(N2CCC(c3ccccc3)CC2)sc2c([N+](=O)[O-])cc(C(F)(F)F)cc12`, the Ratio was 3.

System: Mycolicibacterium smegmatis
Experiment: Antimycobacterial activity against Mycobacterium smegmatis 700084 after 48 hrs by broth microdilution assay
Format: functional
Conditions: Mycolicibacterium smegmatis, 700084, 48 h
In the case of `O=c1nc(NCc2ccc3c(c2)OCCO3)sc2c([N+](=O)[O-])cc(C(F)(F)F)cc12`, the MIC is reported as 0.004 µg/mL (≈ 0.0091 µM).
For `COC(=O)C1CN(c2nc(=O)c3cc(C(F)(F)F)cc([N+](=O)[O-])c3s2)CCC12OC[C@H](C)O2` (stereo not given in full), the MIC was 0.015 µg/mL (≈ 0.0306 µM).
`O=c1nc(N2CCN(c3nccs3)CC2)sc2c([N+](=O)[O-])cc(C(F)(F)F)cc12` gave an MIC of 0.25 µg/mL (≈ 0.564 µM).
With `O=c1nc(N2CCC(c3ccccc3)CC2)sc2c([N+](=O)[O-])cc(C(F)(F)F)cc12` the MIC was 0.004 µg/mL (≈ 0.00919 µM).

System: Mycolicibacterium fortuitum
Experiment: Antimycobacterial activity against Mycobacterium fortuitum B
Format: functional
Conditions: not given
With `O=c1nc(NCc2ccc3c(c2)OCCO3)sc2c([N+](=O)[O-])cc(C(F)(F)F)cc12` the MIC was 0.012 µg/mL (≈ 0.0273 µM).
With `COC(=O)C1CN(c2nc(=O)c3cc(C(F)(F)F)cc([N+](=O)[O-])c3s2)CCC12OC[C@H](C)O2` (stereo not given in full) the MIC was 0.0125 µg/mL (≈ 0.0255 µM).
Work on `O=c1nc(N2CCN(c3nccs3)CC2)sc2c([N+](=O)[O-])cc(C(F)(F)F)cc12` yielded an MIC of 0.025 µg/mL (≈ 0.0564 µM).
With `O=c1nc(N2CCC(c3ccccc3)CC2)sc2c([N+](=O)[O-])cc(C(F)(F)F)cc12` the MIC was 0.0125 µg/mL (≈ 0.0287 µM).

System: Liver
Experiment: Metabolic stability in mouse liver microsomes
Format: ADME, Microsome
Conditions: not given
With `O=c1nc(NCc2ccc3c(c2)OCCO3)sc2c([N+](=O)[O-])cc(C(F)(F)F)cc12` the Stability was 32%.
`COC(=O)C1CN(c2nc(=O)c3cc(C(F)(F)F)cc([N+](=O)[O-])c3s2)CCC12OC[C@H](C)O2` (stereo not given in full) showed a Stability of 29%.
`O=c1nc(N2CCN(c3nccs3)CC2)sc2c([N+](=O)[O-])cc(C(F)(F)F)cc12` gave a Stability of 13%.
Compound `O=c1nc(N2CCC(c3ccccc3)CC2)sc2c([N+](=O)[O-])cc(C(F)(F)F)cc12` has a Stability of 75%.

System: Liver microsomes
Experiment: Metabolic stability in human liver microsomes
Format: ADME, Microsome
Conditions: not given
Work on `O=c1nc(NCc2ccc3c(c2)OCCO3)sc2c([N+](=O)[O-])cc(C(F)(F)F)cc12` yielded a Stability of 43%.
`COC(=O)C1CN(c2nc(=O)c3cc(C(F)(F)F)cc([N+](=O)[O-])c3s2)CCC12OC[C@H](C)O2` (stereo not given in full) showed a Stability of 81%.
Compound `O=c1nc(N2CCN(c3nccs3)CC2)sc2c([N+](=O)[O-])cc(C(F)(F)F)cc12` has a Stability of 42%.
Work on `O=c1nc(N2CCC(c3ccccc3)CC2)sc2c([N+](=O)[O-])cc(C(F)(F)F)cc12` yielded a Stability of 120%.

System: not listed separately
Experiment: Therapeutic index, ratio of GI50 for human K562 cells to MIC for Mycobacterium smegmatis 700084
Format: cell-based
Conditions: read-out: TI
With `O=c1nc(N2CCC(c3ccccc3)CC2)sc2c([N+](=O)[O-])cc(C(F)(F)F)cc12` the selectivity ratio was > 12500.

System: not listed separately
Experiment: Therapeutic index, ratio of CC50 for human HeLa cells to MIC for Mycobacterium smegmatis 700084
Format: cell-based
Conditions: read-out: TI
For `O=c1nc(N2CCC(c3ccccc3)CC2)sc2c([N+](=O)[O-])cc(C(F)(F)F)cc12`, the selectivity ratio was > 12500.
